From US20220389001A1, “ATF6 MODULATORS AND USES THEREOF” (Praxis Biotech LLC, priority 2019, published 2022) come the findings set out here.

Test [1] concerns ATF6. Briefly: ERSE ATF6-luciferase assay in presence of Tg-induced ER stress (U2-OS ATF6 TRE-luciferase reporter cells). In kind it is cell-based, Human. As to conditions: Homo sapiens, U2OS, 8 h, Tg only = 100%. On the procedure:
(§1) To understand how exemplary compounds of the invention modulate the activity of ATF6 in absence or presence of endoplasmic reticulum (ER) stress, a Human bone osteosarcoma (U2-OS)-based TRE-luciferase reporter stable cell line was generated to determine the modulation of transcription of ATF6 target genes.
(§2) U2-OS cells were obtained from the American Type Culture Collection (ATCC HTB-96, ATCC Manassas, Va.) and were cultured with growing medium containing Dulbecco's Modified Eagle's Medium (DMEM) (Cat. No.: SH30023.02, HyClone) supplemented with fetal bovine serum (FBS) 10% (Cat. No.: 16000044, Gibco) and 1% penicillin-streptomycin antibiotic cocktail (Cat. No.: SV30010, Hyclone).
(§3) Cignal Lenti ATF6 luc reporter (Qiagen #CLS-6031L) was used to produce a stable cell line in U2-OS cells (U2-OS ATF6 TRE-luciferase reporter). The lenti ATF6 reporter is a preparation of replication incompetent, VSV-g pseudotyped lentivirus particles expressing the firefly luciferase gene under the control of a minimal (m)CMV promoter and tandem repeats of the ATF6 transcriptional response element (TRE). The number of response elements as well as the intervening sequence between response elements has been experimentally optimized to maximize the signal to noise ratio.
(§4) Exemplary compounds of the invention and reference compounds were prepared from powder as 10 mM stock solutions in dimethyl sulfoxide (DMSO; Cat. No. #D2650, Sigma Aldrich) and stored at −80° C. in presence of N2 neutral atmosphere.
(§5) For the primary screening, 40,000 U2-OS ATF6 TRE-luciferase reporter cells were plated in poly-D-lysine (Cat. No.: P2636, Sigma) pre-coated white 96-well plates (Thermo Scientific Nunc #136101) with 100 μL of growing medium. Cells were incubated in humidified chambers for 24 hr.
For testing exemplary compounds in presence of ER-stress, cells were pre-treated for 30 min with 50 μL growing medium containing either vehicle (DMSO), 1 or 10 μM test compound. After this pre-incubation, 50 μL of a solution containing 0.2 μM of the ER stress-inducer thapsigargin (Tg) was added to the appropriate wells. The Tg solution also contains vehicle or test compounds at 1 or 10 μM as indicated. The final concentration of DMSO in each well was kept at 0.3%. Plates were incubated for 8 hr in humidified chambers.
After the 8 hr incubation, plates were cooled down to room temperature for 10 min prior to the luciferase assays. Luciferase reactions were performed using Luciferase Assay System (Cat. No.: E4550, Promega). Briefly, each well was washed with 100 μl of PBS 1× and, then, 20 μl of lysis reagent was added into each well. Plates were shaken for 10 min and, then, 50 μl of Luciferase Assay Reagent was added to each well. Luminescence was determined by integration of 1 s with a gain of 110 in a Synergy 4 Microplate reader. All measurements were carried out in triplicate.
The average activity determined from the wells containing vehicle only (DMSO, 0% of ATF6 activity) was used as blank and subtracted from the rest of measurements. The average activity determined from the wells containing Tg only was used as 100% of ATF6 activity. The percentage of modulation of exemplary compounds was calculated by normalizing values to potential maximal activation with Tg.
ATF6 activities of exemplary compounds at 1 and 10 μM in presence Tg-induced ER stress tested in the U2-OS ATF6 TRE-luciferase reporter cells were determined and are shown in Table 2.

The test system of test [2] is ATF6. Briefly: ERSE ATF6-luciferase assay in absence of ER stress (U2-OS ATF6 TRE-luciferase reporter cells). Format: cell-based, Human. The conditions noted are these: 8 hr, normalized to maximal activation with Tg. The procedure:
as §1, §2, §3, §4, §5
For testing exemplary compounds in absence of ER-stress, cells were treated for 8 hr with 100 μL growing medium containing either vehicle (DMSO), 1 or 10 μM test compound or 0.1 μM Tg. The final concentration of DMSO in each well was kept at 0.3%. Plates were incubated in humidified chambers.
After 8 hr of incubation, plates were cooled down to room temperature for 10 min prior to luciferase assays. Luciferase reactions were performed as above. Luminescence was read by integration of 1 s with a gain of 110 in a Synergy 4 Microplate reader. All measurements were carried out in triplicate.
The average activity determined from the wells containing vehicle only (DMSO, 0% of ATF6 activity) was used as blank and subtracted from the rest of measurements. The percentage of modulation of exemplary compound was calculated by normalizing values to potential maximal activation with Tg.
ATF6 activities of exemplary compounds at 1 and 10 μM in absence of Tg-induced ER stress in the U2-OS ATF6 TRE-luciferase reporter cells were determined and are shown in Table 3.
(In general: In a reporter assay the amount or activity of a reporter protein is the signal.)

For the molecule `Cc1c(NC(=O)c2cc(-c3ccco3)on2)cnn1C(C)c1c(Cl)cccc1Cl` (stereo not shown) [Compound 1-22, N-(1-(1-(2,6-dichlorophenyl)ethyl)-5-methyl-1H-pyrazol-4-yl)-5-(furan-2-yl)isoxazole-3-carboxamide], the activity at 1 µM in test [1] (1 μM test compound) lay in the range of 75 to 100%. Further, in test [1] (10 μM test compound), the activity at 10 µM was in the range of 100 to 125%. Further, the “ATF6 activity @ 1 μM- No Tg [%]” value in test [2] (1 μM test compound) is “+ (+ refers to 0% < % activity < 25% at 1 or 10 μM test compound)”. Also, the “ATF6 activity @ 10 μM- No Tg [%]” value in test [2] (10 μM test compound) is listed as “+ (+ refers to 0% < % activity < 25% at 1 or 10 μM test compound)”.
